According to patent publication US20110256064A1, “Novel Compounds for the Treatment of Diseases Associated with Amyloid or Amyloid-like Proteins” (AC Immune, S.A., priority 2010, published 2011):

Target: T1, A®1-42 peptide (Homo sapiens, UniProt P05067)
T1 construct: A®1-42 lyophilized powder (Bachem) was reconstituted in hexafluoroisopropanol (HFIP) to 1 mM; purchased Bachem
Experiment: Thioflavin T spectrofluorescence assay (ThT-assay), inhibition of A®1-42 aggregation
Assay type: biochemical
Details: 330 µM small molecule, 33 µM A®1-42 (molar ratio 10:1), 10 µM ThT, 12.8% DMSO in PBS, 24 hrs at 37° C.; mean +/- SD of two independent experiments
Experimental: The capacity of the compounds of the invention to inhibit the aggregation of A®1-42 peptide was determined by using the thioflavin T spectrofluorescence assay (ThT-assay) as described below.
A®1-42 lyophilized powder (Bachem) was reconstituted in hexafluoroisopropanol (HFIP) to 1 mM. The peptide solution was sonicated for 15 min at room temperature, agitated overnight, and aliquots were placed into non-siliconized microcentrifuge tubes. The HFIP was then evaporated under a stream of argon. The resulting peptide film was dried under vacuum for 10 min, tightly sealed and stored at −80° C. until used.
An A®1-42 peptide film was dissolved in DMSO to reach 400 ? M. An assay solution in PBS was prepared in non-siliconized incubation tubes to reach the following concentrations: 330 ? M small molecule, 33 ? M A®1-42, 10 ? M thioflavin T (ThT), and 12.8% DMSO. Therefore, the final molar ratio of small molecule to A®1-42 was 10:1. A positive control without a small molecule was prepared to measure maximum RFU. A negative control without A®1-42 was prepared for each small molecule. The 3-amino-pyrazole trimer (Rzepecki et. al. Synthesis 2003, 1815) was tested as a reference compound in all assays to ascertain reproducibility between independent experiments. The solutions were then incubated for 24 hrs at 37° C., and the spectrofluorescence (relative fluorescence units; RFU) read in six replicates in black 384-well assay plates (Perkin-Elmer) on a Perkin-Elmer FluoroCount spectrofluorometer. Inhibition of aggregation is expressed as mean % inhibition±1 standard deviation (SD) according to the following equation: […]

T1 sequence (P05067 672-713): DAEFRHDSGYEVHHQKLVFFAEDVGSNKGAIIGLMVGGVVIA

inhibition at 330 µM [%] | Compound
69.5 ± 1.4 | c1ncc(NCC2CCNCC2)cc1NCC1CCNCC1 [Example 8]
15.7 ± 6.1 | c1ncc(N2CCOCC2)cc1N1CCOCC1 [Example 2]
62.7 ± 2.1 | c1cc2ccc(Nc3cncc(NCC4CCNCC4)c3)nc2[nH]1 [Example 11]
73.9 ± 4.7 | FC(F)(F)c1ccc(Nc2cncc(NCC3CCNCC3)c2)cc1 [Example 10]
95.4 ± 0.8 | c1ncc(Nc2ccc3c(C4CCNCC4)c[nH]c3c2)cc1NCC1CCNCC1 [Example 12]
29.5 ± 0.1 | CN1CCC(CNc2cncc(Nc3ccc(C(F)(F)F)nc3)c2)CC1 [Example 18]
62.9 ± 8.2 | FC1(CNc2cncc(Nc3ccc(C(F)(F)F)cc3)c2)CCNCC1 [Example 16]
100 ± 4.4 | c1ncc(Nc2ccc3c4c([nH]c3n2)CCCC4)cc1NCC1CCNCC1 [Example 13]
53.3 ± 7.6 | c1cc2c(C3CCNCC3)c[nH]c2cc1Nc1cncc(N2CCOCC2)c1 [Example 4]
38 ± 0.6 | FC(F)(F)c1ccc(Nc2cncc(NCC3CCNCC3)c2)cn1 [Example 1]
36.9 ± 17.2 | FC(F)(F)c1ccc(Nc2cncc(N3CCOCC3)c2)cn1 [Example 3]
95.7 ± 0.4 | FC1(CNc2cncc(Nc3ccc4c5c([nH]c4n3)CCCC5)c2)CCNCC1 [Example 15]
40.2 ± 6.3 | FC(F)(F)c1ccc(Nc2cncc(NCC3CCOCC3)c2)cn1 [Example 19]
96.5 ± 1.4 | Cn1c2c(c3ccc(Nc4cncc(NCC5(F)CCNCC5)c4)nc31)CCCC2 [Example 17]
55 ± 7.4 | Fc1cc(F)cc(Nc2cncc(NCC3CCNCC3)c2)c1 [Example 9]
28.3 ± 3.2 | FC(F)(F)c1ccc(Nc2cncc(N3CCNCC3)c2)cn1 [Example 7]
86.2 ± 4.7 | FC1(CNc2cncc(Nc3ccc(C(F)(F)F)nc3)c2)CCNCC1 [Example 14]
51.7 ± 0.3 | FC(F)(F)c1ccc(Nc2cncc(NCC3CCOCC3)c2)cc1 [Example 20]

Compound | inhibition at 330 µM [%]
c1ncc(N2CCNCC2)cc1N1CCNCC1 [Example 5] | 60.1 ± 7.8
Fc1cc(F)cc(Nc2cncc(N3CCNCC3)c2)c1 [Example 6] | 62.5 ± 7.4
